This passage reports chromatographic logP and pest or weed control results from patent US20180282347A1, “BICYCLIC COMPOUNDS AS PEST CONTROL AGENTS” (BAYER CROPSCIENCE AKTIENGESELLSCHAFT, priority 2014, published 2018).

Series [1] can be described thus: log P by HPLC on reversed-phase (C18) columns, OECD Guideline 117. It is filed as physicochemical. To be noted: reversed-phase (C18) HPLC column. How it is done:
Calibration is carried out using unbranched alkan-2-ones (having 3 to 16 carbon atoms) with known log P values (log P values determined on the basis of the retention times by linear interpolation between two successive alkanones).

The next series has as its system Myzus persicae. The experiment in a line: Myzus persicae - spray test. It is filed as in vivo. To be noted: foliar, 144 h, application rate 500 g/ha, sprayed Chinese cabbage leaf discs (Brassica pekinensis) infested by all stages, after 6 days, read-out: efficacy in % (100% = all aphids killed). As to the method: Myzus persicae—Spray Test
Solvent: 78 parts by weight of acetone • • 1.5 parts by weight of dimethylformamide
Emulsifier: alkylaryl polyglycol ether
To produce further test concentrations, the formulation is diluted with emulsifier-containing water.
After 6 days, the efficacy in % is determined. 100% means that all the aphids have been killed; 0% means that no aphids have been killed.

The mark [2] stands for this setting: acidic range, pH 2.7, 0.1% aqueous formic acid and acetonitrile as eluents, read-out: logP [a].
Where [3] appears, read: neutral range, pH 7.8, 0.001 molar aqueous ammonium hydrogencarbonate solution and acetonitrile as eluents, read-out: logP [b].

SMILES strings stand for the structures. Where two headings read alike, the source gives them in different places.

As for `CN(C(=O)C1CCS(=O)(=O)C1)c1cc2sc(-c3cccnc3)nc2cn1` (stereo not shown) [Example 10], the chromatographic logP in series [1] (setting [2]) is 1.37. Further, the pest or weed control at 500 g/ha with Myzus persicae came out at 90%. As for `CS(=O)(=O)CCC(=O)Nc1cc2sc(-c3cccnc3)nc2cn1` [Example 29], the chromatographic logP in series [1] (setting [2]) was determined as 1.17. On to `Cc1ccc(-c2cc3sc(-c4cccnc4)nc3cn2)cc1SCC(F)(F)F` [Example 25], for which the chromatographic logP in series [1] (setting [2]) turned out to be 4.32; in series [1] (setting [3]) it was 4.21. With `FC(F)(F)c1ccn(-c2cc3sc(-c4cccnc4)nc3cn2)n1` [Example 26, 2-(Pyridin-3-yl)-6-[3-(trifluoromethyl)-1H-pyrazol-1-yl][1,3]thiazolo[4,5-c]pyridine], the chromatographic logP is 3.66 in series [1] (setting [2]) and 3.68 in series [1] (setting [3]). With `CN(C(=O)c1cccc([S+]([O-])C(F)(F)F)c1)c1cc2sc(-c3cccnc3)nc2cn1` (stereo not shown) [Example 22], in series [1] (setting [2]), the chromatographic logP was found to be 2.21. Further, the pest or weed control at 500 g/ha in the series on Myzus persicae was 90%.

Take `CNC(=O)c1cc2sc(-c3cccnc3)nc2cn1` [Example 20]: in series [1] (setting [2]), the chromatographic logP stood at 1.35. On to `CN(C(=O)c1cccc(SC(F)(F)F)c1)c1cc2sc(-c3cccnc3)nc2cn1` [Example 7], for which, in series [1] (setting [2]), the chromatographic logP is 3.3. Besides, the pest or weed control at 500 g/ha with Myzus persicae came to 90%. Take `Clc1cc2sc(-c3cccnc3)nc2cn1` [Example 24, 6-Chloro-2-(3-pyridyl)thiazolo[4,5-c]pyridine]: in series [1] (setting [2]), the chromatographic logP was determined as 1.89. Turning to `O=C(Nc1cccc(SC(F)(F)F)c1)c1cc2sc(-c3cccnc3)nc2cn1` [Example 11], in series [1] (setting [2]), the chromatographic logP was 4.33. In the case of `c1ccc(-c2cc3sc(-c4cccnc4)nc3cn2)nc1` [Example 6, 6-(2-Pyridyl)-2-(3-pyridyl)thiazolo[4,5-c]pyridine], the chromatographic logP amounted to 1.68 in series [1] (setting [2]) and 2.38 in series [1] (setting [3]).

For `O=C(Nc1cc2sc(-c3cccnc3)nc2cn1)c1cccc([S+]([O-])C(F)(F)F)c1` (stereo not shown) [Example 28], the chromatographic logP in series [1] (setting [2]) stood at 2.61. On to `CN(C(=O)CCS(C)(=O)=O)c1cc2sc(-c3cccnc3)nc2cn1` [Example 17, N-Methyl-3-(methylsulphonyl)-N-[2-(pyridin-3-yl) [1,3]thiazolo[4,5-c]pyridin-6-yl]propanamide], for which the chromatographic logP in series [1] (setting [2]) was 1.25. The pest or weed control at 500 g/ha with Myzus persicae amounted to 90%. Turning to `Cc1ccc(-c2cc3sc(-c4cccnc4)nc3cn2)cc1[S+]([O-])CC(F)(F)F` (stereo not shown) [Example 5], the chromatographic logP was found to be 2.79 in series [1] (setting [2]) and 2.74 in series [1] (setting [3]).

For the molecule `c1cncc(-c2nc3cnc(N4CCCC4)cc3s2)c1` [Example 27, 2-(Pyridin-3-yl)-6-(pyrrolidin-1-yl)[1,3]thiazolo[4,5-c]pyridine], the chromatographic logP in series [1] (setting [2]) was determined as 1.38; in series [1] (setting [3]), 2.61. The corresponding values for `FC(F)(F)c1cc2sc(-c3cccnc3)nc2cn1` [Example 3, 2-(3-Pyridyl)-6-(trifluoromethyl)thiazolo[4,5-c]pyridine] are 2.32 and 2.32.

Consider `O=C(Nc1cccc([S+]([O-])C(F)(F)F)c1)c1cc2sc(-c3cccnc3)nc2cn1` (stereo not shown) [Example 14], for which the chromatographic logP in series [1] (setting [2]) is 2.99. For `CN(C(=O)c1cccc(S(=O)(=O)C(F)(F)F)c1)c1cc2sc(-c3cccnc3)nc2cn1` [Example 18], the chromatographic logP in series [1] (setting [2]) turned out to be 1.54. The pest or weed control at 500 g/ha in the series with Myzus persicae was found to be 100%.

In the case of `Cc1cc(F)c(-c2cc3sc(-c4cccnc4)nc3cn2)cc1[S+]([O-])CC(F)(F)F` (stereo not shown) [Example 2, 6-[2-Fluoro-4-methyl-5-(2,2,2-trifluoroethylsulphinyl)phenyl]-2-(3-pyridyl)thiazolo [4,5-c]pyridine], the results for the chromatographic logP in series [1] (setting [2]) and in series [1] (setting [3]) were 2.8 and 2.77, respectively.

On to `O=C(Nc1cccc(S(=O)(=O)C(F)(F)F)c1)c1cc2sc(-c3cccnc3)nc2cn1` [Example 19], for which the chromatographic logP in series [1] (setting [2]) is 2.09. Consider `Cc1cc(F)c(-c2cc3sc(-c4cccnc4)nc3cn2)cc1SCC(F)(F)F` [Example 1, 6-[2-Fluoro-4-methyl-5-(2,2,2-trifluoroethylsulphanyl)phenyl]-2-(3-pyridyl)thiazolo [4,5-c]pyridine], for which the chromatographic logP is 4.45 in series [1] (setting [2]) and 4.41 in series [1] (setting [3]). In addition, the pest or weed control at 500 g/ha in the series with Myzus persicae was determined as 90%. For the molecule `CCN(C)C(=O)c1cc2sc(-c3cccnc3)nc2cn1` [Example 21], in series [1] (setting [2]), the chromatographic logP worked out at 1.52. For the same molecule, the pest or weed control at 500 g/ha in the series on Myzus persicae was 90%. Turning to `c1cncc(-c2nc3cnc(N4CCOCC4)cc3s2)c1` [Example 4, 4-[2-(3-Pyridyl)thiazolo[4,5-c]pyridin-6-yl]morpholine], the chromatographic logP in series [1] (setting [2]) is 1.73; in series [1] (setting [3]), 1.94. In the series on Myzus persicae, the pest or weed control at 500 g/ha came out at 90%.

Regarding `CS(=O)(=O)CCNC(=O)c1cc2sc(-c3cccnc3)nc2cn1` [Example 30], the chromatographic logP in series [1] (setting [2]) came to 1.23.
